Where two headings read alike, the source gives them in different places.
Assays:
JAK2 = target: T1, JAK2 (Homo sapiens, UniProt O60674); assay: Recombinant Human JAK2 Kinase Assay (TRF); assay type: biochemical; details: read-out: JAK2 Potency
T1 construct: host or cells: baculovirus expression system
Protocol: Compounds were tested for their ability to inhibit the kinase activity of baculovirus-expressed JAK2 using the TRF detection system. […] The plates were coated first with 100 μL/well of 10 μg/mL Neutravidin (Pierce #31000, Rockford, Ill.) in TBS at 37° C. for 2 hours, followed by 100 μL/well of 1 μg/mL 15-mer peptide substrate (biotinyl-amino-hexanoyl-[…]-amide, Infinity Biotech Research and Resource, Aston, Pa.) at 37° C. for another hour. The JAK2 assay mixture (total volume=100 μL/well) consisting of 20 mM HEPES (pH 7.2), 0.2 μM ATP, 1 mM MnCl2, 0.1% BSA, and test compound (diluted in DMSO; 2.5% DMSO final in assay) was then added to the assay plate. Enzyme (15 ng/ml JAK2) was added and the reaction was allowed to proceed at room temperature for 20 minutes. Detection of the phosphorylated product was performed by adding 100 μL/well of Eu—N1 labeled PY100 antibody (PerkinElmer Life Sciences #AD0041, Boston, Mass.).

ALK = target: T2, ALK (Homo sapiens, UniProt Q9UM73); assay: ALK Kinase Assay (ELISA/TRF, PLC-γ substrate); assay type: biochemical; details: read-out: ALK Potency
T2 construct: host or cells: baculovirus expression system
T2 sequence (Q9UM73 19-1620): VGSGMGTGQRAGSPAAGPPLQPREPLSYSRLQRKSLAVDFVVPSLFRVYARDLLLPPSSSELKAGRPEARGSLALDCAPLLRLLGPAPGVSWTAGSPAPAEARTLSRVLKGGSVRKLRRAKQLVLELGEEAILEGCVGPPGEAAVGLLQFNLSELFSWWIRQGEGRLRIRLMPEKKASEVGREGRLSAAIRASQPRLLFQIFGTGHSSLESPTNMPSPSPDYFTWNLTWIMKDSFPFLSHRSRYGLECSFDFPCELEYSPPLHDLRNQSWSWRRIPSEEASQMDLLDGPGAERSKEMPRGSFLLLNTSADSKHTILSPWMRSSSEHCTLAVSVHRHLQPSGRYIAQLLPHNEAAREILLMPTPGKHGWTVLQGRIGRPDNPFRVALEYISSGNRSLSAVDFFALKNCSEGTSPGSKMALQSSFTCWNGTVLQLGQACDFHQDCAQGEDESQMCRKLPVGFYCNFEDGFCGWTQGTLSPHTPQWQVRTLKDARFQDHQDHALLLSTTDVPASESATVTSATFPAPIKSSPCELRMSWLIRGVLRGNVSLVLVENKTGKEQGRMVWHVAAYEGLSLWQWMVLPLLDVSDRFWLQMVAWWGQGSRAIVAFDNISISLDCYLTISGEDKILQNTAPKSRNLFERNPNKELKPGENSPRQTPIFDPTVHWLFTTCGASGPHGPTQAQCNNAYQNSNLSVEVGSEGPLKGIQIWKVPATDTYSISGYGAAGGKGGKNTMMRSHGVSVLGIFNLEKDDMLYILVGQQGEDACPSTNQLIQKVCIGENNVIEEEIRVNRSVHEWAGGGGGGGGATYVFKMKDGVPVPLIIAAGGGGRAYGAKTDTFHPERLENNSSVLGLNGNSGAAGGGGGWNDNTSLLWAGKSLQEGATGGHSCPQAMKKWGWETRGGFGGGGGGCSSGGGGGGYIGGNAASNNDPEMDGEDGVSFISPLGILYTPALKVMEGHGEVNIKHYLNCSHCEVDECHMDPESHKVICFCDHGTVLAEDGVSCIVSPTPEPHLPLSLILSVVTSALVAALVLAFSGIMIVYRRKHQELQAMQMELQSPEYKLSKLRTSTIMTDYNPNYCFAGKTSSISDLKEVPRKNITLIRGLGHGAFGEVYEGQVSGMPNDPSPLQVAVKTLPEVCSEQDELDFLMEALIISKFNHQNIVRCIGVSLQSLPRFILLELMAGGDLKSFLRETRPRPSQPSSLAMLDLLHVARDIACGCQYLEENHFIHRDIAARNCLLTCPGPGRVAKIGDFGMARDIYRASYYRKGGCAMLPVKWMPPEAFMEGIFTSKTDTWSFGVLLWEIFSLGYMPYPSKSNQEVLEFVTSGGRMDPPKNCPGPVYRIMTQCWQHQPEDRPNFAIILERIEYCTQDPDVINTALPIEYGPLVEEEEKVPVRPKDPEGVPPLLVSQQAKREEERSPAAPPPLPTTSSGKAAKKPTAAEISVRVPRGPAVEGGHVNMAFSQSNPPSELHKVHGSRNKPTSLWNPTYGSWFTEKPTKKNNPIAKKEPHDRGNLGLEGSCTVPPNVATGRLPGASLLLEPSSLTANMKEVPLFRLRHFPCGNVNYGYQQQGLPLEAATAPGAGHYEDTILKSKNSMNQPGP
Protocol: Briefly, each 96-well plate was coated with […] of 10 μg/mL substrate (phospholipase C-γ) in Tris-buffered saline (TBS). […] The reaction was initiated by adding enzyme (30 ng/ml ALK) and was allowed to proceed at 37° C. for 15 minutes. Detection of the phosphorylated product was performed by adding 100 μl/well of Eu—N1 labeled PT66 antibody (Perkin Elmer # AD0041).
Data analysis was performed using ActivityBase (IDBS, Guilford, UK). IC50 values were calculated by plotting percent inhibition versus log10 of the concentration of compound and fitting to the nonlinear regression sigmoidal dose-response (variable slope) equation in XLFit (IDBS, Guilford, UK).

[1] = JAK2 kinase inhibition, 0.2 μM ATP
[2] = ALK kinase inhibition, 1 μM ATP

T1 sequence (O60674 whole entry): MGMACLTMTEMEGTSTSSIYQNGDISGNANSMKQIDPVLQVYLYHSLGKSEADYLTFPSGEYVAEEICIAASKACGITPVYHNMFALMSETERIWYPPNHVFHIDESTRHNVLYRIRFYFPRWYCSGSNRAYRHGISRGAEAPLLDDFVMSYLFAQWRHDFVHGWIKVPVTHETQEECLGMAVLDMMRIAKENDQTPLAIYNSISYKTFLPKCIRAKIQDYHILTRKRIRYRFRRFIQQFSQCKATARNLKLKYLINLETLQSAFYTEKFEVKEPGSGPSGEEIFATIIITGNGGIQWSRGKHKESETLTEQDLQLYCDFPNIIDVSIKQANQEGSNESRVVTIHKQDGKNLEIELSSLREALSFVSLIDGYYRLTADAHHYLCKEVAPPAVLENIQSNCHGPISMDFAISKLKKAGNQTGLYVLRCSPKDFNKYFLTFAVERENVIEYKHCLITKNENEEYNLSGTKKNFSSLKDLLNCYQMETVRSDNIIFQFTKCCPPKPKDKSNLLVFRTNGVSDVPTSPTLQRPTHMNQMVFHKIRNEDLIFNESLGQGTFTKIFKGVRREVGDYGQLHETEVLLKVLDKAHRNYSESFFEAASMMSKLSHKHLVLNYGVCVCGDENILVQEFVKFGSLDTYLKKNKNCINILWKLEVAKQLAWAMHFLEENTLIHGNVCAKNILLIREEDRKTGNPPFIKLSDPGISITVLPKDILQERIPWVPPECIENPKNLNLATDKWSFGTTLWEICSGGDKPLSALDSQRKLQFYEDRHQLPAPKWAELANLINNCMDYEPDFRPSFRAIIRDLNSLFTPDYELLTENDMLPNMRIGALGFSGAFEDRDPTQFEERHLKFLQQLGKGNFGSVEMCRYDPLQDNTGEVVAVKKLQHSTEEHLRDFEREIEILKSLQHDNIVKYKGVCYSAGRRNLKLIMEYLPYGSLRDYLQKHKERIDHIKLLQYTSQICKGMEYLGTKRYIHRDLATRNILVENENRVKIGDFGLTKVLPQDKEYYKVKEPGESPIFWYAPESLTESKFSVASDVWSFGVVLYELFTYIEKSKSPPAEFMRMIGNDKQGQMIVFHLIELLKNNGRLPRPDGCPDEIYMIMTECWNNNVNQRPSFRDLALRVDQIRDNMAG

SMILES | IC50 (JAK2; [1]) [nM] | IC50 (ALK; [2]) [nM] | other results
COc1ccc(Cl)cc1-c1ccc2cnc(Nc3ccc(C(C)C)c(NC(C)=O)c3)nn12 [Example 302, N-{5-[7-(5-Chloro-2-methoxy-phenyl)-pyrrolo[2,1-f][1,2,4]triazin-2-ylamino]-2-isopropyl-phenyl}-acetamide] | – | – | IC50 (JAK2; JAK2 Kinase Inhibition): < 100 nM
COc1cc([C@@]2(O)CCN(C(=O)OC(C)(C)C)C[C@@H]2O)ccc1Nc1ncc2ccc(-c3ccccc3OC)n2n1 (racemic) [Example 831, (±)-(3S,4S)-3,4-Dihydroxy-4-{3-methoxy-4-[7-(2-methoxy-phenyl)-pyrrolo[2,1-f][1,2,4]triazin-2-ylamino]-phenyl}-piperidine-1-carboxylic acid tert-butyl ester] | 100 to 1000 | – | –
COc1cc([C@@]2(O)CCN(CC(N)=O)C[C@@H]2O)ccc1Nc1ncc2ccc(-c3ccccc3N(C)S(C)(=O)=O)n2n1 (racemic) [Example 844, (±)-2-[(3S,4S)-3,4-Dihydroxy-4-(4-{7-[2-(methanesulfonyl-methyl-amino)-phenyl]-pyrrolo[2,1-f][1,2,4]triazin-2-ylamino}-3-methoxy-phenyl)-piperidin-1-yl]-acetamide] | 100 to 1000 | – | –
CN1CCN(c2ccc(Nc3ncc4cc(-c5cccnc5)cn4n3)cc2)CC1 [Example 1157] | 100 to 1000 | – | –
COc1cc2c(cc1Nc1ncc3ccc(-c4ccccc4OC)n3n1)CCCC(N1CCOCC1)C2 (stereo not shown) [Example 992, (3-Methoxy-6-morpholin-4-yl-6,7,8,9-tetrahydro-5H-benzocyclohepten-2-yl)-[7-(2-methoxy-phenyl)-pyrrolo[2,1-f][1,2,4]triazin-2-yl]-amine] | – | < 100 | –
COc1ccccc1-c1ccc2cnc(Nc3ccc(N4CCN(C)CC4)c(F)c3)nn12 [Example 90, [3-Fluoro-4-(4-methyl-piperazin-1-yl)-phenyl]-[7-(2-methoxy-phenyl)-pyrrolo[2,1-f][1,2,4]triazin-2-yl]-amine] | – | – | IC50 (ALK; ALK Kinase Inhibition): < 100 nM
COc1cc(N2CCN(C[C@H](O)CO)CC2)ccc1Nc1ncc2ccc(-c3cc(Cl)ccc3OC)n2n1 [Example 759, (S)-3-(4-{4-[7-(5-Chloro-2-methoxy-phenyl)-pyrrolo[2,1-f][1,2,4]triazin-2-ylamino]-3-methoxy-phenyl}-piperazin-1-yl)-propane-1,2-diol] | – | < 100 | –
Cc1cc(-c2ccccc2N(C)S(C)(=O)=O)n2nc(Nc3ccc(C4CCN(CC(N)=O)CC4)cc3)ncc12 [Example 1261, 2-[4-(4-{7-[2-(Methanesulfonyl-methyl-amino)-phenyl]-5-methyl-pyrrolo[2,1-f][1,2,4]triazin-2-ylamino}-phenyl)-piperidin-1-yl]-acetamide] | – | < 100 | –
CN1CCN(c2ccc(Nc3ncc4ccc(-c5ccccc5N(C)S(C)(=O)=O)n4n3)cc2)CC1 [Example 627, N-Methyl-N-(2-{2-[4-(4-methyl-piperazin-1-yl)phenylamino]pyrrolo[2,1-f][1,2,4]triazin-7-yl}phenyl)methanesulfonamide] | – | < 100 | –
CN1CCN(c2ccc(Nc3ncc4ccc(-c5ccccc5N(C)S(C)(=O)=O)n4n3)c(Cl)c2)CC1 [Example 507, N-(2-{2-[2-Chloro-4-(4-methyl-piperazin-1-yl)-phenylamino]-pyrrolo[2,1-f][1,2,4]triazin-7-yl}-phenyl)-N-methyl-methanesulfonamide] | – | < 100 | –

More lines, main results first:

IC50 (JAK2; [1]) [nM] | IC50 (ALK; [2]) [nM] | SMILES | other results
< 100 | – | COc1cc(C2CCN(C)CC2O)ccc1Nc1ncc2ccc(-c3ccccc3OC)n2n1 (racemic) [Example 830, (±)-4-{3-Methoxy-4-[7-(2-methoxy-phenyl)-pyrrolo[2,1-f][1,2,4]triazin-2-ylamino]-phenyl}-1-methyl-piperidin-3-ol] | –
100 to 1000 | – | COc1cc([C@@H]2CCN(CC(N)=O)C[C@@H]2O)ccc1Nc1ncc2ccc(-c3ccccc3OC)n2n1 (racemic) [Example 839, (±)-2-43R,4S)-3-Hydroxy-4-{3-methoxy-4-[7-(2-methoxy-phenyl)-pyrrolo[2,1-f][1,2,4]triazin-2-ylamino]-phenyl}-piperidin-1-yl)-acetamide] | –
< 100 | – | COc1cc([C@@]2(O)CCN(CC(N)=O)C[C@@H]2O)ccc1Nc1ncc2ccc(-c3ccccc3OC)n2n1 (racemic) [Example 849, (±)-2-43S,4S)-3,4-Dihydroxy-4-{3-methoxy-4-[7-(2-methoxy-phenyl)-pyrrolo[2,1-f][1,2,4]triazin-2-ylamino]-phenyl}-piperidin-1-yl)-acetamide] | –
< 100 | – | COc1cc([C@@H]2CCN(CCO)C[C@H]2O)ccc1Nc1ncc2ccc(-c3ccccc3OC)n2n1 (racemic) [Example 856, (±)-(3S,4S)-1-(2-Hydroxy-ethyl)-4-{3-methoxy-4-[7-(2-methoxy-phenyl)-pyrrolo[2,1-f][1,2,4]triazin-2-ylamino]-phenyl}-piperidin-3-ol] | –
100 to 1000 | – | COc1cc([C@@H]2CCNC[C@@H]2O)ccc1Nc1ncc2ccc(-c3ccccc3OC)n2n1 (racemic) [Example 835, (±)-(3R,4S)-4-{3-Methoxy-4-[7-(2-methoxy-phenyl)-pyrrolo[2,1-f][1,2,4]triazin-2-ylamino]-phenyl}-piperidin-3-ol] | –
100 to 1000 | – | COc1cc([C@@H]2CCNC[C@H]2O)ccc1Nc1ncc2ccc(-c3ccccc3OC)n2n1 (racemic) [Example 855, (±)-(3S,4S)-4-{3-Methoxy-4-[7-(2-methoxy-phenyl)-pyrrolo[2,1-f][1,2,4]triazin-2-ylamino]-phenyl}-piperidin-3-ol] | –
1000 to 10000 | – | COc1cc([C@@]2(O)CCNC[C@@H]2O)ccc1Nc1ncc2ccc(-c3ccccc3N(C)S(C)(=O)=O)n2n1 (racemic) [Example 840, (±)-N-(2-{2-[4-((3S,4S)-3,4-Dihydroxy-piperidin-4-yl)-2-methoxy-phenylamino]-pyrrolo[2,1-f][1,2,4]triazin-7-yl}-phenyl)-N-methyl-methanesulfonamide] | –
< 100 | – | COc1cc([C@@]2(O)CCNC[C@@H]2O)ccc1Nc1ncc2ccc(-c3ccccc3OC)n2n1 (racemic) [Example 832, (±)-(3S,4S)-4-{3-Methoxy-4-[7-(2-methoxy-phenyl)-pyrrolo[2,1-f][1,2,4]triazin-2-ylamino]-phenyl}-piperidine-3,4-diol] | –
< 100 | – | COc1cc([C@@H]2CCN(CCO)C[C@@H]2O)ccc1Nc1ncc2ccc(-c3ccccc3OC)n2n1 (racemic) [Example 848, (±)-(3R,4S)-1-(2-Hydroxy-ethyl)-4-{3-methoxy-4-[7-(2-methoxy-phenyl)-pyrrolo[2,1-f][1,2,4]triazin-2-ylamino]-phenyl}-piperidin-3-ol] | –
– | < 100 | COc1ccc(C2CCN(C)CC2)cc1Nc1ncc2ccc(-c3ccccc3OC)n2n1 [Example 770, [2-Methoxy-5-(1-methyl-piperidin-4-yl)-phenyl]-[7-(2-methoxy-phenyl)-pyrrolo[2,1-f][1,2,4]triazin-2-yl]-amine] | –
– | < 100 | COc1cc(N2CCN(C[C@H](O)CO)CC2)ccc1Nc1ncc2ccc(-c3ccccc3OC)n2n1 [Example 760, (S)-3-(4-{3-Methoxy-4-[7-(2-methoxy-phenyl)-pyrrolo[2,1-f][1,2,4]triazin-2-ylamino]-phenyl}-piperazin-1-yl)-propane-1,2-diol] | –
< 100 | – | COc1cc([C@@]2(O)CCN(C)C[C@@H]2O)ccc1Nc1ncc2ccc(-c3ccccc3OC)n2n1 (racemic) [Example 829, (±)-(3S,4S)-4-{3-Methoxy-4-[7-(2-methoxy-phenyl)-pyrrolo[2,1-f][1,2,4]triazin-2-ylamino]-phenyl}-1-methyl-piperidine-3,4-diol] | –

— patent publication US8471005B2 (Cephalon, Inc., priority 2008, dated 2013)
